Results as given in US20110237686A1, “FORMULATIONS AND METHODS OF USE” (Cerulean Pharma Inc, priority 2010, published 2011).
“And” between values parts separate entries of the source, which are not always exact repeats. Identical values can stand only once. Values belong to the compound of their own block, whether it stands above or below them.

Tests used:
Assay type in all cases: physicochemical
[1] = Lyophilization using HP-β-CD, freezing with liquid nitrogen and vacuum at room temperature; settings: PEGylated nanoparticles A, polymer 31.25 mg/mL, vacuum at room temperature;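 also: cyclodextrins or their derivatives tested as cryoprotectant during lyophilization of PEGylated nanoparticles, assessing particle size growth attributed to PEG crystallization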
Experimental: In this example, a new strategy of using cyclodextrins and their derivatives as a cryoprotectant was tested. […] A cryoprotectant is needed to lyophilize liquid formulation that contain PEGylated nanoparticles A (Entries #1 and #2).

[2] = Lyophilization using other cyclodextrins; settings: for Dv90 / PDI / Zave / Filtration Potency Loss: post lyophilization
Experimental: Other CDs were also evaluated at the similar weight ratio of cryoprotectant/nanoparticle.

[3] = Lyophilization of stealth liposome (Doxil); settings: lipids 16 mg/mL, cryoprotectant 40 mg/mL (2.5:1 w/w lipid), HP-β-CD lyophilization cycle, post lyophilization
[4] = Cryoprotectant screen, sucrose lyophilization cycle; settings: PEGylated nanoparticles A; for Dv90 / PDI / Zave: reconstituted
Experimental: A cryoprotectant screen was performed as follows.
These conditions are shown below in Table 21.

[5] = Simple lyophilization of PLGA7K-PVA-PEG2K-30 and PLGA7K-PVA-PEG5K-30 PEGylated nanoparticle formulations; settings: 2K PEG PLGA nanoparticles 20 mg/mL, cryoprotectant 20 mg/mL (1:1 w/w)
Description: The results are similar to that obtained for PEGylated nanoparticles A except for SB-β-CD. The result from SB-β-CD supported the H-bonding mechanism for cryoprotection of PEGylated PLGA nanoparticles since SB-β-CD has less hydroxyl groups than α-CD, γ-CD and HP-β-CD (about ⅓ of —OH groups of β-CD are substituted by sulfobutyl groups).

[6] = cryoprotectant 20 mg/mL (0.64:1 w/w)
[7] = cryoprotectant 40 mg/mL (1.28:1 w/w)
[8] = cryoprotectant 40 mg/mL (1.28:1 w/w), listed as HP-beta-CD
[9] = cryoprotectant 60 mg/mL (1.92:1 w/w)
[10] = cryoprotectant 80 mg/mL (2.56:1 w/w)
[11] = PEGylated nanoparticles A, polymer 31.25 mg/mL, CD 40 mg/mL (1.28:1 w/w)
[12] = polymer 31.25 mg/mL (Doce. 1.5), cryoprotectant 100 mg/mL (3.2:1 w/w)
[13] = polymer 31.25 mg/mL, cryoprotectant 30 mg/mL (0.96:1 w/w)
[14] = polymer 10.42 mg/mL (Doce. 0.50), cryoprotectant 100 mg/mL (9.6:1 w/w)
[15] = polymer 20.83 mg/mL (Doce. 1.00), cryoprotectant 100 mg/mL (4.8:1 w/w)
[16] = polymer 26.05 mg/mL (Doce. 1.25), cryoprotectant 100 mg/mL (3.8:1 w/w)
[17] = polymer 31.25 mg/mL, cryoprotectant 20 mg/mL (0.64:1 w/w)
[18] = polymer 31.25 mg/mL, cryoprotectant 60 mg/mL (1.92:1 w/w)
[19] = polymer 31.25 mg/mL, cryoprotectant 200 mg/mL (6.4:1 w/w)
[20] = polymer 31.25 mg/mL, cryoprotectant 300 mg/mL (9.6:1 w/w)
[21] = cryoprotectant 15 mg/mL (0.48:1 w/w)
[22] = SB-β-CD 40 mg/mL, polymer 28.87 mg/mL (Doce. 1.94), 1.39:1 w/w
[23] = SB-β-CD 60 mg/mL, polymer 28.87 mg/mL (Doce. 1.94), 2.08:1 w/w

Dv90 [1, 6]: 121 nm | PDI [1, 6]: 0.095 | Reconstituted Solution appearance [1, 6]: some | Zave [1, 6]: 90.93 nm | Reconstituted Solution appearance [1, 7]: good | Dv90 [1, 8]: 118 nm and 119 nm | PDI [1, 8]: 0.077 and 0.075 | Zave [1, 8]: 89.43 nm and 90.66 nm | Dv90 [1, 9]: 119 nm | PDI [1, 9]: 0.089 | Reconstituted Solution appearance [1, 9]: good | Zave [1, 9]: 89.84 nm | Dv90 [1, 10]: 119 nm | PDI [1, 10]: 0.095 | Reconstituted Solution appearance [1, 10]: good | Zave [1, 10]: 90.60 nm | Dv90 [2, 11]: 119 nm | PDI [2, 11]: 0.075 | Zave [2, 11]: 90.66 nm | Dv90 [3]: 119 nm | PDI [3]: 0.071 | Zave [3]: 90.32 nm
Compound: 2-hydroxypropyl-β-cyclodextrin [HP-β-CD]

Lyophilized preparation Appearance [4, 12]: some | Recon. Solution Appearance [4, 12]: cloudy | Dv90 [4, 12]: 178 nm | PDI [4, 12]: 0.352 | Zave [4, 12]: 183.2 nm
Compound: OC[C@H]1O[C@@H](O[C@H]2[C@H](O)[C@@H](O)C(O)O[C@@H]2CO)[C@H](O)[C@@H](O)[C@H]1O (stereo partly drawn) [Lactose, lactose]

Lyophilized preparation Appearance [4, 12]: some | Recon. Solution Appearance [4, 12]: cloudy | Dv90 [4, 12]: 2540 nm | PDI [4, 12]: 0.544 | Zave [4, 12]: 472.7 nm | Lyophilized preparation Appearance [4, 13]: good | Recon. Solution Appearance [4, 13]: precipitation | Dv90 [4, 13]: 340 nm | PDI [4, 13]: 0.638 | Zave [4, 13]: 499.2 nm | outcome after lyophilization (in place of particle size) [5]: Precipitated
Compound: OC[C@@H](O)[C@@H](O)[C@H](O)[C@H](O)CO [Mannitol, mannitol]

Lyophilized preparation Appearance [4, 14]: good | Recon. Solution Appearance [4, 14]: slight | Dv90 [4, 14]: 160 nm | PDI [4, 14]: 0.0166 | Zave [4, 14]: 108.1 nm | Lyophilized preparation Appearance [4, 15]: good | Recon. Solution Appearance [4, 15]: cloudy | Dv90 [4, 15]: 189 nm | PDI [4, 15]: 0.725 | Zave [4, 15]: 606.5 nm | Lyophilized preparation Appearance [4, 16]: good | Recon. Solution Appearance [4, 16]: cloudy | Dv90 [4, 16]: 379 nm | PDI [4, 16]: 0.372 | Zave [4, 16]: 259.1 nm | Lyophilized preparation Appearance [4, 12]: good | Recon. Solution Appearance [4, 12]: cloudy | Dv90 [4, 12]: 286 nm | PDI [4, 12]: 0.417 | Zave [4, 12]: 294.2 nm | Lyophilized preparation Appearance [4, 17]: good | Recon. Solution Appearance [4, 17]: precipitation | Dv90 [4, 17]: 188 nm | PDI [4, 17]: 0.381 | Zave [4, 17]: 236.1 nm | Lyophilized preparation Appearance [4, 18]: good | Recon. Solution Appearance [4, 18]: cloudy | Dv90 [4, 18]: 169 nm | PDI [4, 18]: 0.464 | Zave [4, 18]: 276.9 nm | Lyophilized preparation Appearance [4, 19]: good | Recon. Solution Appearance [4, 19]: slight | Dv90 [4, 19]: 186 nm | PDI [4, 19]: 0.348 | Zave [4, 19]: 192.2 nm | Lyophilized preparation Appearance [4, 20]: good | Recon. Solution Appearance [4, 20]: slight | Dv90 [4, 20]: 205 nm | PDI [4, 20]: 0.325 | Zave [4, 20]: 154.8 nm | Dv90 [1, 7]: 130 nm | PDI [1, 7]: 0.260 | Reconstituted Solution appearance [1, 7]: precipitation | Zave [1, 7]: 114.1 nm | outcome after lyophilization (in place of particle size) [5]: Precipitated
Compound: OC[C@H]1O[C@H](O[C@H]2O[C@H](CO)[C@@H](O)[C@H](O)[C@H]2O)[C@H](O)[C@@H](O)[C@@H]1O [Trehalose, trehalose]

Dv90 [1, 21]: 122 nm | Filtration Loss [1, 21]: 8% | PDI [1, 21]: 0.088 | Reconstituted Solution appearance [1, 21]: good | Zave [1, 21]: 92.05 nm | Dv90 [2, 11]: 121 nm | PDI [2, 11]: 0.070 | Zave [2, 11]: 92.06 nm | Dv90 [5]: 139 nm | PDI [5]: 0.087 | Zave [5]: 101.0 nm
Compound: OC[C@H]1O[C@@H]2O[C@H]3[C@H](O)[C@@H](O)[C@@H](O[C@H]4[C@H](O)[C@@H](O)[C@@H](O[C@H]5[C@H](O)[C@@H](O)[C@@H](O[C@H]6[C@H](O)[C@@H](O)[C@@H](O[C@H]7[C@H](O)[C@@H](O)[C@@H](O[C@H]1[C@H](O)[C@H]2O)O[C@@H]7CO)O[C@@H]6CO)O[C@@H]5CO)O[C@@H]4CO)O[C@@H]3CO [α-CD, α-cyclodextrin]

solubility of the lyoprotectant in the formulation ([2]; CD 40 mg/mL): Beta-CD is not soluble at this
Compound: OC[C@H]1O[C@@H]2O[C@H]3[C@H](O)[C@@H](O)[C@@H](O[C@H]4[C@H](O)[C@@H](O)[C@@H](O[C@H]5[C@H](O)[C@@H](O)[C@@H](O[C@H]6[C@H](O)[C@@H](O)[C@@H](O[C@H]7[C@H](O)[C@@H](O)[C@@H](O[C@H]8[C@H](O)[C@@H](O)[C@@H](O[C@H]1[C@H](O)[C@H]2O)O[C@@H]8CO)O[C@@H]7CO)O[C@@H]6CO)O[C@@H]5CO)O[C@@H]4CO)O[C@@H]3CO [β-CD, β-cyclodextrin]

Dv90 [2, 11]: 121 nm | PDI [2, 11]: 0.097 | Zave [2, 11]: 91.06 nm | Dv90 [5]: 139 nm | PDI [5]: 0.080 | Zave [5]: 101.8 nm
Compound: OC[C@H]1O[C@@H]2O[C@H]3[C@H](O)[C@@H](O)[C@@H](O[C@H]4[C@H](O)[C@@H](O)[C@@H](O[C@H]5[C@H](O)[C@@H](O)[C@@H](O[C@H]6[C@H](O)[C@@H](O)[C@@H](O[C@H]7[C@H](O)[C@@H](O)[C@@H](O[C@H]8[C@H](O)[C@@H](O)[C@@H](O[C@H]9[C@H](O)[C@@H](O)[C@@H](O[C@H]1[C@H](O)[C@H]2O)O[C@@H]9CO)O[C@@H]8CO)O[C@@H]7CO)O[C@@H]6CO)O[C@@H]5CO)O[C@@H]4CO)O[C@@H]3CO [γ-CD, γ-cyclodextrin]

Dv90 [2, 22]: 149 nm | Filtration Potency Loss [2, 22]: 2% | Zave [2, 22]: 106.9 nm | Dv90 [2, 23]: 151 nm | Filtration Potency Loss [2, 23]: 8% | Zave [2, 23]: 108.5 nm | outcome after lyophilization (in place of particle size) [5]: Precipitated
Compound: β-cyclodextrin sulfobutylether [SB-β-CD]
